For 56 compounds, IC50 results are on record in patent publication US20240018102A1, “COMPOUNDS AND COMPOSITIONS FOR TREATING CONDITIONS ASSOCIATED WITH LPA RECEPTOR ACTIVITY” (Lhotse Bio, Inc., priority 2020, published 2024).

The assay deals with T1, human LPA1 (Homo sapiens, UniProt Q92633).
T1 construct: expressed in transfected cells; host or cells: CHO-K1
T1 sequence (Q92633 whole entry): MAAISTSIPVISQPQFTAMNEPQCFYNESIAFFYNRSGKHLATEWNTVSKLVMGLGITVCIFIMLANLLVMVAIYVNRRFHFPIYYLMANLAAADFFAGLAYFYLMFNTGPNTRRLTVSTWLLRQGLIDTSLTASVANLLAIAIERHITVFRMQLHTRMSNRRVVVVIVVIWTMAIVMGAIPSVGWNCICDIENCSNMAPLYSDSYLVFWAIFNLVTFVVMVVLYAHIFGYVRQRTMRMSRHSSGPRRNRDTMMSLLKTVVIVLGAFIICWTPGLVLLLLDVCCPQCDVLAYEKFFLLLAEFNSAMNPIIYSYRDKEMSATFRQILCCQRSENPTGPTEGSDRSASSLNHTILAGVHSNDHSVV
Briefly: In vitro LPA1 calcium flux antagonist assay, Bioduro protocol. The note with it: CHO-K1 cells overexpressing human LPA1 and G15a; LPA challenge at EC80; calcium mobilization on FLIPR Tetra; read-out: IC50 (nM) in Assay B2. The class given is cell-based. The protocol: In Vitro LPA1 Calcium Flux Antagonist Assay Bioduro Protocol
CHO-K1 cells overexpressing human LPA1 and G15a were seeded at a total volume of 20 uL (15000 cells/well) into Matrigel pre-coated 384-well plates (coming -3764) and incubated at 37° C. After overnight incubation, the cells were serum starved for 4 h. Assays were performed in dye loading buffer containing 1× Fluo-8 AM (AAT Bioquest, 21080) and 2.5 mM probenecid (Thermo Fisher, 36400) in HBSS/20 mM Hepes. After cell starvation, the medium was replaced with 20 uL of dye loading buffer and incubated at 37° C. for 30 min. Then 5 uL of 5× compound titrated in dye loading buffer was added to the cells and incubated for 30 min followed by LPA challenge at EC80. Calcium mobilization was measured on a FLIPR Tetra (MDS). For LPA EC80 determination, starved cells were incubated with 20 uL of dye loading buffer for 1 h, then 5 uL of 5×LPA titrated in dye loading buffer was added to the cells. Calcium signals induced by LPA was monitors on a FLIPR.
Percentage inhibition is calculated using the following formula:
% Inhibition=100%×(1−(mean RFU of test sample−mean RFU of DMSO)/(mean RFU of LPA control−mean RFU of DMSO)).
(A change in cytosolic calcium serves as a functional read-out for many receptors and channels.)
Broadly, the IC50 is the concentration that gives 50% inhibition. Take `COc1cc([C@@H](O)[C@H](Cn2cc3cc(C4CC4)cc(C(=O)O)c3n2)OC2CCCC2)cc(OC)c1C` [Compound 166]: the IC50 is 4.94 nM.
In the case of `COc1cc([C@@H](O)[C@H](Cc2nc3cccc(C(=O)O)n3n2)OC2CCCC2)cc(OC)c1C` [Compound 167], the concentration for half-maximal inhibition (IC50) was more than 10000 nM.
In the case of `COc1cc([C@@H](O)[C@H](Cc2nc3c(C(=O)O)cccn3n2)OC2CCCC2)cc(OC)c1C` [Compound 168], the IC50 is more than 10000 nM.
For the compound `COc1cc([C@@H](O)[C@H](Cc2cc3cccc(C(=O)O)n3n2)OC2CCCC2)cc(OC)c1C` [Compound 169, 2-((2S,3R)-2-(cyclopentyloxy)-3-(3,5-dimethoxy-4-methylphenyl)-3-hydroxypropyl)pyrazolo[1,5-a]pyridine-7-carboxylic acid], the IC50 worked out at 150 nM.
Next, `COc1cc([C@@H](O)[C@H](Cn2nc3cccc(C(=O)O)c3n2)OC2CCCC2)cc(OC)c1C` [Compound 170]: more than 10000 nM; `COc1cc([C@@H](O)[C@H](Cn2cc3cccc(C(=O)NS(C)(=O)=O)c3n2)OC2CCCC2)cc(OC)c1C` [Compound 171]: not below 10000 nM.
With `CCc1cc(C(=O)O)c2nn(C[C@H](OC3CCCC3)[C@H](O)c3cc(OC)c(C)c(OC)c3)cc2c1` [Compound 172], the IC50 stood at 4.01 nM.
As to `COc1cc([C@@H](O)[C@H](Cn2cc3cc(Cl)cc(C(=O)O)c3n2)OC2CCCC2)ccc1C(F)F` [Compound 173], the half-inhibitory concentration (IC50) came out at 6.09 nM.
For `COc1cc([C@@H](O)[C@H](Cn2cc3c(=O)n(C)cc(C(=O)O)c3n2)OC2CCCC2)cc(OC)c1C` [Compound 174], the IC50 is 103 nM.
The same measure for `COc1cc([C@@H](O)[C@H](Cc2nc3c(C(=O)O)cccc3n2C)OC2CCCC2)cc(OC)c1C` [Compound 175]: more than 10000 nM; for `COc1cc([C@@H](O)[C@H](Cc2nc3c(C(=O)O)cncc3s2)OC2CCCC2)cc(OC)c1C` [Compound 176]: 9.95 nM; for `COc1cc([C@@H](O)[C@H](Cc2nc(CC(=O)O)c(C)s2)OC2CCCC2)cc(OC)c1C` [Compound 177, 2-(2-((2S,3R)-2-(cyclopentyloxy)-3-(3,5-dimethoxy-4-methylphenyl)-3-hydroxypropyl)-5-methylthiazol-4-yl)acetic acid]: 154 nM.
Consider `CCc1sc(C[C@H](OC2CCCC2)[C@H](O)c2cc(OC)c(C)c(OC)c2)nc1CC(=O)O` [Compound 178], for which the IC50 amounted to 73.8 nM.
In the case of `CCCc1sc(C[C@H](OC2CCCC2)[C@H](O)c2cc(OC)c(C)c(OC)c2)nc1CC(=O)O` [Compound 179], the IC50 stood at 20.3 nM.
For `COc1cc([C@@H](O)[C@H](Cn2cc3ccc(C#N)c(C(=O)O)c3n2)OC2CCCC2)cc(OC)c1C` [Compound 180], the IC50 was determined as 153 nM.
On to `COc1cc([C@@H](O)[C@H](Cn2cc3cccc(-c4nc(=O)o[nH]4)c3n2)OC2CCCC2)cc(OC)c1C` [Compound 181], for which the IC50 was more than 10000 nM.
`COc1cc([C@@H](O)[C@H](Cn2cc3c(C#N)ccc(C(=O)O)c3n2)OC2CCCC2)cc(OC)c1C` [Compound 182]: the IC50 was 79.2 nM.
As for `COc1cc([C@@H](O)[C@H](Cn2cc3cccc(C#N)c3n2)OC2CCCC2)cc(OC)c1C` [Compound 183], the IC50 was more than 10000 nM.
The same measure for `COc1cc([C@@H](O)[C@H](Cn2cc3nccc(C(=O)O)c3n2)OCCc2ccccc2)cc(OC)c1C` [Compound 184]: 24 nM.
The same measure for `COc1cc([C@@H](O)[C@H](Cn2cc3nccc(C(=O)O)c3n2)OC2Cc3ccccc3C2)cc(OC)c1C` [Compound 185]: 15 nM.
For the compound `COc1cc([C@@H](O)[C@H](Cn2cc3c(C(F)(F)F)ccc(C(=O)O)c3n2)OC2CCCC2)cc(OC)c1C` [Compound 186], the IC50 amounted to 7640 nM.
Next, `COc1cc([C@@H](O)[C@H](Cn2cc3nccc(C(=O)O)c3n2)OCCc2ccc(F)cc2)cc(OC)c1C` [Compound 187]: 132 nM; `COc1cc([C@@H](O)[C@H](Cn2cc3nccc(C(=O)O)c3n2)OC2CCCC2)c(C)cc1C` [Compound 188]: 447 nM; `COc1cc([C@@H](O)[C@H](Cn2cc3nccc(C(=O)O)c3n2)OC2CCCC2)ccc1C(F)F` [Compound 189]: 454 nM.
The same measure for `COc1cc([C@@H](O)[C@H](Cn2cc3nccc(C(=O)O)c3n2)OC2CCCC2)c(F)cc1C` [Compound 190]: 1530 nM; for `COc1cc([C@@H](O)[C@H](Cn2cc3nccc(C(=O)O)c3n2)OC2CCCC2)ccc1C` [Compound 191]: 662 nM; for `COc1c(C)ccc([C@@H](O)[C@H](Cn2cc3nccc(C(=O)O)c3n2)OC2CCCC2)c1C` [Compound 192]: 1120 nM.
Take `COc1c(C)ccc([C@@H](O)[C@H](Cn2cc3nccc(C(=O)O)c3n2)OC2CCCC2)c1F` [Compound 193]: the IC50 is 757 nM.
With `COc1cc([C@@H](O)[C@H](Cn2cc3nc(C)cc(C(=O)O)c3n2)OC2CCCC2)cc(OC)c1C` [Compound 194], the half-inhibitory concentration (IC50) was 26.9 nM.
Regarding `COc1cc([C@@H](O)[C@H](Cn2cc3cc(C)nc(C(=O)O)c3n2)OC2CCCC2)cc(OC)c1C` [Compound 195], the IC50 came out at 32.3 nM.
Regarding `COc1cc([C@@H](O)[C@H](Cn2cc3nc(C4CC4)cc(C(=O)O)c3n2)OC2CCCC2)cc(OC)c1C` [Compound 196], the IC50 is 16.3 nM.
`COc1cc(C(=O)O)c2nn(C[C@H](OC3CCCC3)[C@H](O)c3cc(OC)c(C)c(OC)c3)cc2n1` [Compound 197]: the IC50 amounted to 23.8 nM.
For `COc1cc([C@@H](O)[C@H](Cn2cc3nc(Cl)cc(C(=O)O)c3n2)OC2CCCC2)cc(OC)c1C` [Compound 198], the 50% inhibitory concentration (IC50) is 6.87 nM.
`COc1cc([C@@H](O)[C@H](Cn2cc3nccc(C(=O)O)c3n2)OC2CCCC2)c(C)c(OC)c1C` [Compound 199]: the IC50 stood at 667 nM.
With `COc1c(C)ccc([C@@H](O)[C@H](Cn2cc3nccc(C(=O)O)c3n2)OC2CCCC2)c1Cl` [Compound 200], the IC50 was 1130 nM.
`COc1cc([C@@H](O)[C@H](Cn2cc3nccc(C(=O)O)c3n2)OC2CCCC2)c(Cl)cc1C` [Compound 201]: the IC50 turned out to be 938 nM.
Next, `COc1cc([C@@H](O)[C@H](Cn2cc3nccc(C(=O)O)c3n2)OC2CCCC2)c(Cl)c(OC)c1C` [Compound 202]: 4260 nM; `CCOc1cc([C@@H](O)[C@H](Cn2cc3nccc(C(=O)O)c3n2)OC2CCCC2)cc(OCC)c1C` [Compound 203]: 530 nM; `CCOc1cc([C@@H](O)[C@H](Cn2cc3nccc(C(=O)O)c3n2)OC2CCCC2)cc(OCC)c1C(C)=O` [Compound 204]: 122 nM.
Next, `COc1cc([C@@H](O)[C@H](Cn2cc3nccc(C(=O)O)c3n2)OC2CCCC2)cc(OC)c1C1CC1` [Compound 205]: 507 nM; `COc1cc([C@@H](O)C(Cc2nc(CC(=O)O)c(C(=O)O)s2)OC2CCCC2)cc(OC)c1C` (some centres unmarked) [Compound 206]: 2120 nM.
The same measure for `COc1cc([C@@H](O)C(Cc2nc(C3(C(=O)O)CC3)c(C)s2)OC2CCCC2)cc(OC)c1C` (some centres unmarked) [Compound 207]: 723 nM; for `CCOc1cc([C@@H](O)[C@H](Cn2cc3cncc(C(=O)O)c3n2)OC2CCCC2)cc(OCC)n1` [Compound 208]: not below 10000 nM; for `COC(=O)Cc1nc(CC(OC2CCCC2)[C@H](O)c2cc(OC)c(C)c(OC)c2)sc1C(=O)O` (some centres unmarked) [Compound 210]: 7810 nM.
On to `COc1cc([C@@H](O)[C@H](Cn2cc3nccc(C(=O)O)c3n2)OCC(C)C)cc(OC)c1C` [Compound 211], for which the IC50 was 459 nM.
Take `COc1cc([C@@H](O)[C@H](Cn2cc3nc(C#N)cc(C(=O)O)c3n2)OC2CCCC2)cc(OC)c1C` [Compound 212]: the IC50 is 10.8 nM.
The same measure for `COc1cc([C@@H](O)[C@H](Cn2nnc3c(C(=O)O)cccc32)OC2CCCC2)cc(OC)c1C` [Compound 213]: not below 10000 nM.
Next, `COc1cc([C@@H](O)[C@H](Cn2cc3nccc(C(=O)O)c3n2)OCCCc2ccccc2)cc(OC)c1C` [Compound 214]: more than 10000 nM.
`COc1cc([C@@H](O)[C@H](Cn2cc3nccc(C(=O)O)c3n2)OC2CCCC2)cc(OC)c1C(F)F` [Compound 215]: the IC50 worked out at 140 nM.
Regarding `COc1cc([C@@H](O)[C@H](Cn2cc3c(OC)ccc(C(=O)O)c3n2)OC2CCCC2)cc(OC)c1C` [Compound 216], the IC50 amounted to 9.61 nM.
Take `COc1cc([C@@H](O)[C@H](Cc2cn3cc(C)cc(C(=O)O)c3n2)OC2CCCC2)cc(OC)c1C` [Compound 217]: the IC50 was 1300 nM.
With `COc1cc([C@@H](O)[C@H](Cc2cc3cc(C)cc(C(=O)O)n3n2)OC2CCCC2)cc(OC)c1C` [Compound 218], the IC50 came out at 13 nM.
Consider `CCCc1cc(C(=O)O)c2nn(C[C@H](OC3CCCC3)[C@H](O)c3cc(OC)c(C)c(OC)c3)cc2n1` [Compound 219], for which the IC50 amounted to 20.4 nM.
Regarding `COc1cc([C@@H](O)[C@H](Cn2cc3cc(CNC(C)=O)cc(C(=O)O)c3n2)OC2CCCC2)cc(OC)c1C` [Compound 220], the IC50 is 106 nM.
Consider `COc1cc([C@@H](O)[C@H](Cn2cc3cc(C(N)=O)cc(C(=O)O)c3n2)OC2CCCC2)cc(OC)c1C` [Compound 221], for which the IC50 is 91.8 nM.
`COc1cc([C@@H](O)[C@H](Cn2cc3nc(C(N)=O)cc(C(=O)O)c3n2)OC2CCCC2)cc(OC)c1C` [Compound 222]: the IC50 amounted to 43.4 nM.
